Where a name gives a salt, the structure may show the parent alone.

The first test concerns platelet aggregation. As to the kind of experiment: Ex vivo screening of oral GP IIb/IIIa inhibitors: inhibition of collagen-induced platelet aggregation in PRP after oral dosing in beagles. As to conditions: Canis lupus familiaris, Platelet, beagle dogs, 5 mpk, n = 2, 32 hours post-dosing, collagen agonist, read-out: Percent inhibition of platelet aggregation at 32 hour post-dosing. The protocol: Beagles (8-13 kg, various sources) of either sex are dosed orally with compound in a gelatin capsule. Blood samples are drawn from the cephalic vein using a 23 ga infusion butterfly. Samples for platelet aggregation and drug concentration are taken prior to dosing and 0.5, 1, 2, 3, 5, 7 and 10 hours after dosing and periodically on subsequent days until inhibition of platelet aggregation is less than 30%. Animals are fasted, with ad lib access to water, overnight prior to dosing. For measurement of plasma concentration blood is drawn into a 3 ml tube containing 45 USP units of Na Heparin. Blood is centrifuged at 1700×g for 10 minutes, plasma is aspirated and frozen at -20° C. until analyzed by HPLC. For measurement of platelet aggregation, blood is drawn into 2 2.0 ml tubes containing 0.2 ml of 3.8% Na Citrate. Blood is centrifuged at 250×g for 6 minutes and the platelet rich plasma (PRP) is aspirated. The remaining blood is centrifuged at 1700×g for 10 minutes and platelet poor plasma (PPP) is aspirated. Platelet aggregation is performed in a Bio-Data PAP-4 aggregometer (Bio-Data Corp., Havertown, Pa.) using collagen (100 μg/ml final concentration; Helena Laboratories, Beaumont, Tex.) as the agonist. Briefly, baseline (100% aggregation) is set using PPP; PRP is incubated at 37° C. for one minute without stirring and one minute with stirring, agonist is added and aggregation is allowed to develop for 4 minutes. Percent aggregation post-dosing is compared to percent aggregation pre-dosing to determine percent inhibition.
Percent inhibition of platelet aggregation at 32 hour post-dosing in
beagle dogs (5 mpk, n = 2)
Turning to `CCOC(=O)CCNC(=O)N[C@H]1CCN(c2ccc(C(=N)NOC(=O)OCC(Cl)(Cl)Cl)cc2)C1=O` [Example 10, N-[[[(3S)-1-[4-[imino[[[(2,2,2-trichloroethoxy)carbonyl]oxy]amino]methyl]phenyl]-2-oxo-3-pyrrolidinyl]amino]carbonyl]-β-alanine ethyl ester], the inhibition in vivo at 5 mg/kg came to 84%.
Same read-out and setting: in the case of `CCCOC(=O)CCNC(=O)N[C@H]1CCN(c2ccc(C(=N)NOC(=O)N(C)CCN(C)C)cc2)C1=O` [3(m), N-[[[(3S)-1-[4-(1-imino-5,8-dimethyl-4-oxo-3-oxa-2,5,8-triazanon-1-yl)phenyl]-2-oxo-3-pyrrolidinyl]amino]carbonyl]-β-alanine propyl ester dihydrochloride] it was 80%; in that of `CC(C)COC(=O)CCNC(=O)N[C@H]1CCN(c2ccc(C(=N)NOC(=O)NCCN(C)C)cc2)C1=O` [3(r), N-[[[(3S)-1-[4-(1-imino-8-methyl-4-oxo-3-oxa-2,5,8-triazanon-1-yl)phenyl]-2-oxo-3-pyrrolidinyl]amino]carbonyl]-β-alanine 2-methylpropyl ester monoacetate], 46%.
In the case of `CC(C)(C)COC(=O)CCNC(=O)N[C@H]1CCN(c2ccc(C(N)=NO)cc2)C1=O` [1(f), N-[[[(3S)-1-[4-[(hydroxyamino)iminomethyl]phenyl]-2-oxo-3-pyrrolidinyl]amino]carbonyl]-β-alanine 2,2-dimethylpropyl ester], the inhibition in vivo at 5 mg/kg came to 87%.
As for `CCOC(=O)CCNC(=O)N[C@H]1CCN(c2ccc(C(N)=NOC(=O)OCC)cc2)C1=O` [Example 9, N-[[[(3S)-1-[4-[[[(ethoxycarbonyl)oxy]amino]iminomethyl]phenyl]-2-oxo-3-pyrrolidinyl]amino]carbonyl]-β-alanine ethyl ester], the inhibition in vivo at 5 mg/kg is 90%.
On the same count and under the same terms, to `COC(=O)CCNC(=O)N[C@H]1CCN(c2ccc(C(=N)NOC(=O)N3CCN(C)CC3)cc2)C1=O` [Example 3, N-[[[(3S)-1-[4-[imino[[[(4-methyl-1-piperazinyl)-carbonyl]oxy]amino]-methyl]phenyl]-2-oxo-3-pyrrolidinyl]amino]carbonyl]-β-alanine methyl ester] belongs 66%; to `CCOC(=O)CCNC(=O)N[C@H]1CCN(c2ccc(C(=N)NOC(=O)N(C)CCN(C)C)cc2)C1=O` [3(e), N-[[[(3S)-1-[4-(1-imino-5,8-dimethyl-4-oxo-3-oxa-2,5,8-triazanon-1-yl)phenyl]-2-oxo-3-pyrrolidinyl]amino]carbonyl]-β-alanine ethyl ester dihydrochloride], 54%.
Still for that read-out and setting: in the case of `CCOC(=O)CCNC(=O)N[C@H]1CCN(c2ccc(C(N)=NOC(=O)N(C)C)cc2)C1=O` [4(a), N-[[[(3S)-1-[4-[[[[(dimethylamino)carbonyl]oxy]amino]iminomethyl]phenyl]-2-oxo-3-pyrrolidinyl]amino]carbonyl]-β-alanine ethyl ester] it was 63%; in that of `COC(=O)CCNC(=O)N[C@H]1CCN(c2ccc(C(N)=NO)cc2)C1=O` [Example 1(a), N-[[[(3S)-1-[4-[(hydroxyamino)iminomethyl]phenyl]-2-oxo-3-pyrrolidinyl]amino]carbonyl]-β-alanine methyl ester], 85%.
On the same count and under the same terms, to `CCOC(=O)CCNC(=O)N[C@H]1CCN(c2ccc(C(N)=NOC(N)=O)cc2)C1=O` [5(a), N-[[[(3S)-1-[4-[[[(aminocarbonyl)oxy]amino]iminomethyl]phenyl]-2-oxo-3-pyrrolidinyl]amino]carbonyl]-β-alanine ethyl ester] belongs 82%.
As to `CC(C)COC(=O)CCNC(=O)N[C@H]1CCN(c2ccc(C(N)=NO)cc2)C1=O` [1(d), N-[[[(3S)-1-[4-[(hydroxyamino)iminomethyl]phenyl]-2-oxo-3-pyrrolidinyl]amino]carbonyl]-β-alanine 2-methylpropyl ester monohydrochloride], the inhibition in vivo at 5 mg/kg was 45%.
As to `CC(C)OC(=O)CCNC(=O)N[C@H]1CCN(c2ccc(C(=N)NOC(=O)N3CCN(C)CC3)cc2)C1=O` [3(h), N-[[[(3S)-1-[4-[imino[[[(4-methyl-1-piperazinyl)carbonyl]oxy]amino]methyl]phenyl]-2-oxo-3-pyrrolidinyl]amino]carbonyl]-β-alanine 1-methylethyl ester dihydrochloride], the inhibition in vivo at 5 mg/kg is 56%.
Turning to `CC(C)COC(=O)CCNC(=O)N[C@H]1CCN(c2ccc(C(=N)NOC(=O)N(C)CCN(C)C)cc2)C1=O` [3(q), N-[[[(3S)-1-[4-(1-imino-5,8-dimethyl-4-oxo-3-oxa-2,5,8-triazanon-1-yl)phenyl]-2-oxo-3-pyrrolidinyl]amino]carbonyl]-β-alanine 2-methylpropyl ester dihydrochloride], the inhibition in vivo at 5 mg/kg was 57%.
The same measure, in the same setting: to `CCCCCOC(=O)CCNC(=O)N[C@H]1CCN(c2ccc(C(=N)NOC(=O)N3CCN(C)CC3)cc2)C1=O` [3(ff), N-[[[(3S)-1-[4-[imino[[[(4-methyl-1-piperazinyl)carbonyl]oxy]amino]methyl]-phenyl]-2-oxo-3-pyrrolidinyl]amino]carbonyl]-β-alanine pentyl ester dihydrochloride] belongs 70%; to `CC(C)OC(=O)CCNC(=O)N[C@H]1CCN(c2ccc(C(=N)NOC(=O)NCCN(C)C)cc2)C1=O` [3(j), N-[[[(3S)-1-[4-(1-imino-8-methyl-4-oxo-3-oxa-2,5,8-triazanon-1-yl)phenyl]-2-oxo-3-pyrrolidinyl]amino]carbonyl]-β-alanine 1-methylethyl ester monoacetate], 34%; to `CCCOC(=O)CCNC(=O)N[C@H]1CCN(c2ccc(C(N)=NO)cc2)C1=O` [1(c), N-[[[(3S)-1-[4-[(hydroxyamino)iminomethyl]phenyl]-2-oxo-3-pyrrolidinyl]amino]carbonyl]-β-alanine propyl ester monohydrochloride], 94%.
On the same count and under the same terms, to `COC(=O)CCNC(=O)N[C@H]1CCN(c2ccc(C(N)=NOC(=O)N(C)C)cc2)C1=O` [Example 4, N-[[[(3S)-1-[4-[[[[(dimethylamino)carbonyl]oxy]amino]iminomethyl]phenyl]-2-oxo-3-pyrrolidinyl]amino]carbonyl]-β-alanine methyl ester] belongs 68%; to `CCCCOC(=O)CCNC(=O)N[C@H]1CCN(c2ccc(C(=N)NOC(=O)N(C)CCN(C)C)cc2)C1=O` [3(u), N-[[[(3S)-1-[4-(1-imino-5,8-dimethyl-4-oxo-3-oxa-2,5,8-triazanon-1-yl)phenyl]-2-oxo-3-pyrrolidinyl]amino]carbonyl]-β-alanine butyl ester dihydrochloride], 63%; to `CCCOC(=O)CCNC(=O)N[C@H]1CCN(c2ccc(C(=N)NOC(=O)N3CCN(C)CC3)cc2)C1=O` [3(l), N-[[[(3S)-1-[4-[imino[[[(4-methyl-1-piperazinyl)carbonyl]oxy]amino]methyl]phenyl]-2-oxo-3-pyrrolidinyl]amino]carbonyl]-β-alanine propyl ester dihydrochloride], 71%.
As to `CCCOC(=O)CCNC(=O)N[C@H]1CCN(c2ccc(C(=N)NOC(=O)NCCN(C)C)cc2)C1=O` [3(n), N-[[[(3S)-1-[4-(1-imino-8-methyl-4-oxo-3-oxa-2,5,8-triazanon-1-yl)phenyl]-2-oxo-3-pyrrolidinyl]amino]carbonyl]-β-alanine propyl ester monoacetate monohydrate], the inhibition in vivo at 5 mg/kg came out at 73%.
Still for that read-out and setting: to `CN1CCN(C(=O)ONC(=N)c2ccc(N3CC[C@H](NC(=O)NCCC(=O)OC4CCCCC4)C3=O)cc2)CC1` [3(cc), N-[[[(3S)-1-[4-[imino[[[(4-methyl-1-piperazinyl)carbonyl]oxy]amino]methyl]phenyl]-2-oxo-3-pyrrolidinyl]amino]carbonyl]-β-alanine cyclohexyl ester dihydrochloride monohydrate] belongs 22%; to `CC(C)OC(=O)CCNC(=O)N[C@H]1CCN(c2ccc(C(N)=NO)cc2)C1=O` [1(b), N-[[[(3S)-1-[4-[(hydroxyamino)iminomethyl]phenyl]-2-oxo-3-pyrrolidinyl]amino]carbonyl]-β-alanine 1-methylethyl ester monohydrochloride], 71%.

The same test, now with this note: beagle dogs, 5 mpk, n = 2, 10 hours post-dosing, collagen agonist.
Turning to `CN(C)CCN(C)C(=O)ONC(=N)c1ccc(N2CC[C@H](NC(=O)NCCC(=O)O)C2=O)cc1.O.O=C(O)C(F)(F)F.O=C(O)C(F)(F)F` [6(a), N-[[[(3S)-1-[4-(1-imino-5,8-dimethyl-4-oxo-3-oxa-2,5,8-triazanon-1-yl)phenyl]-2-oxo-3-pyrrolidinyl]amino]carbonyl]-β-alanine bis(trifluoroacetate) monohydrate], the “% inhibition of platelet aggregation @ 10 hours” value came out at 61%.

Still in this test, the particulars now being: beagle dogs, 5 mpk, n = 2, 26 hours post-dosing, collagen agonist.
`COC(=O)CCNC(=O)N[C@H]1CCN(c2ccc(C(=N)NOC(=O)N(C)CCN(C)C)cc2)C1=O.Cl` [3(a), N-[[[(3S)-1-[4-(1-imino-5,8-dimethyl-4-oxo-3-oxa-2,5,8-triazanon-1-yl)phenyl]-2-oxo-3-pyrrolidinyl]amino]carbonyl]-β-alanine methyl ester monohydrochloride]: the “% inhibition of platelet aggregation @ 26 hours” value is 33%.

The values are drawn from patent US6025358A, “Double prodrugs of potent GP IIb/IIIa antagonists” (G. D. Searle & Co., priority 1999, dated 2000).
